# The source made the active and inactive calls. No cut-off for these calls is given here.
# Key:
# HCT-116 = experiment: Antiproliferative activity against human HCT-116 cells assessed as inhibition of cell growth incubated for 72 hrs by celltiter-glo assay; format: functional, cell-based; details: HCT-116, 72 h
# [1] = Metabolic stability in human liver microsomes assessed as intrinsic clearance measured upto 60 mins in presence of NADPH by LC/MS-MS analysis; format: ADME, Microsome; details: read-out: CLH
# [2] = Metabolic stability in rat liver microsomes assessed as half life measured upto 60 mins in presence of NADPH by LC/MS-MS analysis; format: ADME, Microsome
# [3] = Cmax in male Sprague-Dawley rat plasma at 10 mg/kg, IG measured at 6 hrs by LC-MS/MS analysis; format: ADME, organism-based; details: po
# [4] = Toxicity in BALB/c mouse assessed as appearance of loose stools at 60 mg/kg, po administered once daily for 21 days; format: organism-based; details: in vivo, 504 h, time 21 day
# [5] = Toxicity in BALB/c mouse assessed as animal death at 60 mg/kg, po measured on day 6,7 and 11; format: organism-based; details: in vivo, 576 h, time 24 day
# MM1.S [6] = experiment: Induction of apoptosis in human MM1.S cells at 0.5 to 1 uM incubated for 48 hrs by Annexin V-FITC/PI staining based flow cytometry analysis; format: functional, cell-based; details: dose 0.5-1 µM
# [7] = Half life in male Sprague-Dawley rat at 10 mg/kg, po measured upto 30 hrs by LC-MS/MS analysis; format: ADME, organism-based; details: in vivo
# [8] = Metabolic stability in rat liver microsomes assessed as intrinsic clearance measured upto 60 mins in presence of NADPH by LC/MS-MS analysis; format: ADME, Microsome; details: read-out: CLH
# [9] = AUC (0 to t) in male Sprague-Dawley rat at 2 mg/kg, iv measured upto 30 hrs by LC-MS/MS analysis; format: ADME, organism-based; details: in vivo
# AN3-CA = experiment: Antiproliferative activity against human AN3-CA cells assessed as inhibition of cell growth incubated for 72 hrs by celltiter-glo assay; format: functional, cell-based
# [10] = Metabolic stability in mouse liver microsomes assessed as intrinsic clearance measured upto 60 mins in presence of NADPH by LC/MS-MS analysis; format: ADME, Microsome; details: read-out: CLH
# [11] = Half life in male Sprague-Dawley rat at 2 mg/kg, iv measured upto 30 hrs by LC-MS/MS analysis; format: ADME, organism-based; details: in vivo
# MV4-11 = experiment: Antiproliferative activity against human MV4-11 cells assessed as inhibition of cell growth incubated for 72 hrs by celltiter-glo assay; format: functional, cell-based; details: MV4-11, 72 h
# [12] = Toxicity in NOD-SCID mouse assessed as loss of crypt depth in intestine at 60 mg/kg, po measured every 2 days for 21 days by H and E staining based analysis; format: organism-based; details: in vivo, 504 h, time 21 day
# [13] = AUC in male Sprague-Dawley rat brain at 10 mg/kg, IG measured at 6 hrs by LC-MS/MS analysis; format: ADME, organism-based; details: po
# [14] = target: Voltage-gated inwardly rectifying potassium channel KCNH2 (Homo sapiens, UniProt Q12809); experiment: Inhibition of hERG in HEK293 cells; format: toxicity, cell-based
# [15] = AUC (0 to infinity) in male Sprague-Dawley rat at 2 mg/kg, iv measured upto 30 hrs by LC-MS/MS analysis; format: ADME, organism-based; details: in vivo
# MM1.S [16] = experiment: Inhibition of CRM1 protein expression in human MM1.S cells at 0.25 to 1.25 uM by Western blot analysis; format: functional, cell-based; details: dose 0.25-1.25 µM, time 2-24 hrs
# [17] = Metabolic stability in human liver microsomes assessed as half life measured upto 60 mins in presence of NADPH by LC/MS-MS analysis; format: ADME, Microsome
# MM1.S [18] = experiment: Antiproliferative activity against human MM1.S cells assessed as inhibition of cell growth incubated for 72 hrs by celltiter-glo assay; format: functional, cell-based
# SW872 = experiment: Antiproliferative activity against human SW872 cells assessed as inhibition of cell growth incubated for 72 hrs by celltiter-glo assay; format: functional, cell-based; details: SW872, 72 h
# [19] = Toxicity in NOD-SCID mouse implanted with human MM1.S cells assessed as body weight loss at 15 mg/kg, po measured upto 21 days; format: organism-based; details: in vivo, 504 h, time < 21 day
# RPMI-8226 = experiment: Antiproliferative activity against human RPMI-8226 cells assessed as inhibition of cell growth incubated for 72 hrs by celltiter-glo assay; format: functional, cell-based; details: RPMI-8226, 72 h
# [20] = Tmax in male Sprague-Dawley rat at 10 mg/kg, po measured upto 30 hrs by LC-MS/MS analysis; format: ADME, organism-based; details: in vivo
# [21] = AUC in male Sprague-Dawley rat plasma at 10 mg/kg, IG measured at 6 hrs by LC-MS/MS analysis; format: ADME, organism-based; details: po
# [22] = target: Ran-specific GTPase-activating protein (Homo sapiens, UniProt P43487); experiment: Inhibition of RANBP1 nuclear export in human U2OS cells assessed as increase in fluorescence intensity measured for 15 mins by DAPI staining based fluorescence microscopic analysis; format: cell-based
# [23] = Antiproliferative activity against human ARP-1 cells assessed as inhibition of cell growth incubated for 72 hrs by celltiter-glo assay; format: functional, cell-based; details: ARP-1, 72 h
# [24] = Metabolic stability in monkey liver microsomes assessed as half life measured upto 60 mins in presence of NADPH by LC/MS-MS analysis; format: ADME, Macaca mulatta, Microsome; details: rhesus monkey
# [25] = target: Exportin-1 (Homo sapiens) (UniProt O14980); experiment: Reversible binding affinity to CRM1 in human U2OS cells incubated for 4 hrs by DAPI staining based fluorescence microscopic analysis; format: cell-based
# [26] = Oral bioavailability in male Sprague-Dawley rat at 10 mg/kg measured upto 30 hrs by LC-MS/MS analysis; format: ADME, organism-based; details: in vivo
# [27] = Metabolic stability in dog liver microsomes assessed as half life measured upto 60 mins in presence of NADPH by LC/MS-MS analysis; format: ADME, Canis lupus familiaris, Microsome
# KMS-11 = experiment: Antiproliferative activity against human KMS-11 cells assessed as inhibition of cell growth incubated for 72 hrs by celltiter-glo assay; format: functional, cell-based; details: KMS-11, 72 h
# [28] = Cmax in male Sprague-Dawley rat at 10 mg/kg, po measured upto 30 hrs by LC-MS/MS analysis; format: ADME, organism-based; details: in vivo
# [29] = AUC (0 to t) in male Sprague-Dawley rat at 10 mg/kg, po measured upto 30 hrs by LC-MS/MS analysis; format: ADME, organism-based; details: in vivo
# [30] = Metabolic stability in mouse liver microsomes assessed as half life measured upto 60 mins in presence of NADPH by LC/MS-MS analysis; format: ADME, Microsome
# ARH-77 = experiment: Antiproliferative activity against human ARH-77 cells assessed as inhibition of cell growth incubated for 72 hrs by celltiter-glo assay; format: functional, cell-based; details: ARH-77, 72 h
# MM1.S [31] = experiment: Inhibition of CRM1 protein expression in human MM1.S cells by Western blot analysis; format: functional, cell-based; details: dose 0.25-1.25 µM
# [32] = Toxicity in NOD-SCID mouse assessed as hyperplasia of crypt in intestine at 60 mg/kg, po measured every 2 days for 21 days by H and E staining based analysis; format: organism-based; details: in vivo, 504 h, time 21 day
# [33] = Toxicity in NOD-SCID mouse assessed as decrease in villus height to crypt depth ratio at 60 mg/kg, po measured every 2 days for 21 days by H and E staining based analysis; format: organism-based; details: in vivo, 504 h, time 21 day
# MM1.S [34] = experiment: Induction of apoptosis in human MM1.S cells assessed as increase in FOXO3A signal intensity; format: functional, cell-based
# [35] = AUC (0 to infinity) in male Sprague-Dawley rat at 10 mg/kg, po measured upto 30 hrs by LC-MS/MS analysis; format: ADME, organism-based; details: in vivo
# [36] = Toxicity in BALB/c mouse assessed as appearance of erectile hair at 60 mg/kg, po administered once daily for 21 days; format: organism-based; details: in vivo, 504 h, time 21 day
# BXPC-3 = experiment: Antiproliferative activity against human BXPC-3 cells assessed as inhibition of cell growth incubated for 72 hrs by celltiter-glo assay; format: functional, cell-based; details: BXPC-3, 72 h
# LAMA-84 = experiment: Antiproliferative activity against human LAMA-84 cells assessed as inhibition of cell growth incubated for 72 hrs by celltiter-glo assay; format: functional, cell-based; details: LAMA-84, 72 h
# MOLM-13 = experiment: Antiproliferative activity against human MOLM-13 cells assessed as inhibition of cell growth incubated for 72 hrs by celltiter-glo assay; format: functional, cell-based; details: MOLM-13, 72 h
# LoVo = experiment: Antiproliferative activity against human LoVo cells assessed as inhibition of cell growth incubated for 72 hrs by celltiter-glo assay; format: functional, cell-based
# [37] = Metabolic stability in dog liver microsomes assessed as intrinsic clearance measured upto 60 mins in presence of NADPH by LC/MS-MS analysis; format: ADME, Canis lupus familiaris, Microsome; details: read-out: CLH
# [38] = Metabolic stability in monkey liver microsomes assessed as intrinsic clearance measured upto 60 mins in presence of NADPH by LC/MS-MS analysis; format: ADME, Macaca mulatta, Microsome; details: rhesus monkey, read-out: CLH
# [39] = Toxicity in NOD-SCID mouse assessed as shortening of villi in intestine at 15 mg/kg, po measured every 2 days for 21 days by H and E staining based analysis; format: organism-based; details: in vivo, 504 h, time 21 day
# [40] = Toxicity in BALB/c mouse assessed as decrease in body weight at 30 mg/kg, po administered once daily for 21 days; format: organism-based; details: in vivo, 504 h, time 21 day
# Chain of Ran-specific GTPase-activating protein (P43487 whole entry): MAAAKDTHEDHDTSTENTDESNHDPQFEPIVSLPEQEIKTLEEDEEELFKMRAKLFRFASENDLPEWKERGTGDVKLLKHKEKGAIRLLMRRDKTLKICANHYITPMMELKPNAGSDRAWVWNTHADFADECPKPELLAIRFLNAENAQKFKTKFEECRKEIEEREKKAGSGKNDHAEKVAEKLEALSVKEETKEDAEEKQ
# Chain of Exportin-1 (Homo sapiens) (O14980 whole entry): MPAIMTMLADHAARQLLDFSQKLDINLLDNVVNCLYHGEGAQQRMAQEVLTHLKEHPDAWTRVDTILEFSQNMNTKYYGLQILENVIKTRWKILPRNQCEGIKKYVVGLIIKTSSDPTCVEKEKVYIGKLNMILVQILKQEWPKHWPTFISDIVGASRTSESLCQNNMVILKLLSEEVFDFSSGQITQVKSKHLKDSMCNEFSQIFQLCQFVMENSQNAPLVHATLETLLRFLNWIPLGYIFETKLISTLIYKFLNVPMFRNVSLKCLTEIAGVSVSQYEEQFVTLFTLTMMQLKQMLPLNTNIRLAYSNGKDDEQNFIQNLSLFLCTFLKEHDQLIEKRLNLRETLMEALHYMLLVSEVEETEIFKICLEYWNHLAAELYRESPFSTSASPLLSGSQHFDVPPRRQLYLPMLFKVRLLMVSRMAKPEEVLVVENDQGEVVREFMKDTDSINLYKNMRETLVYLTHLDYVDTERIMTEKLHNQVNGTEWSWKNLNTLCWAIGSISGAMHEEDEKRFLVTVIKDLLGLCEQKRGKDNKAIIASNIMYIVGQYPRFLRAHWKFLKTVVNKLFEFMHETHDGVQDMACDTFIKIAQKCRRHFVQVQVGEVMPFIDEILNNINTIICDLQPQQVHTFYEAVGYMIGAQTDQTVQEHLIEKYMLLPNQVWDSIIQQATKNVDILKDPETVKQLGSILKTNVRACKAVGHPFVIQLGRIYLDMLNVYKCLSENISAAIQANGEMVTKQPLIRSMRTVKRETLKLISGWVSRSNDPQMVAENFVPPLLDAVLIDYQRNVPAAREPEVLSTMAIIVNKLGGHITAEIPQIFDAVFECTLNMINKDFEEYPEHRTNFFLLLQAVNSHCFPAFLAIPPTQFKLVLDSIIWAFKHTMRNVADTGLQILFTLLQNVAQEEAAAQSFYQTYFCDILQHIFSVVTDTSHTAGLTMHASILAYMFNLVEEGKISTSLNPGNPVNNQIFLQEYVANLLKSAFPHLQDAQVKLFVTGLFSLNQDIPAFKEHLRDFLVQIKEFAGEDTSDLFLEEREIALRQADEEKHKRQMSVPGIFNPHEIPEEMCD
# Chain of Voltage-gated inwardly rectifying potassium channel KCNH2 (Q12809 whole entry): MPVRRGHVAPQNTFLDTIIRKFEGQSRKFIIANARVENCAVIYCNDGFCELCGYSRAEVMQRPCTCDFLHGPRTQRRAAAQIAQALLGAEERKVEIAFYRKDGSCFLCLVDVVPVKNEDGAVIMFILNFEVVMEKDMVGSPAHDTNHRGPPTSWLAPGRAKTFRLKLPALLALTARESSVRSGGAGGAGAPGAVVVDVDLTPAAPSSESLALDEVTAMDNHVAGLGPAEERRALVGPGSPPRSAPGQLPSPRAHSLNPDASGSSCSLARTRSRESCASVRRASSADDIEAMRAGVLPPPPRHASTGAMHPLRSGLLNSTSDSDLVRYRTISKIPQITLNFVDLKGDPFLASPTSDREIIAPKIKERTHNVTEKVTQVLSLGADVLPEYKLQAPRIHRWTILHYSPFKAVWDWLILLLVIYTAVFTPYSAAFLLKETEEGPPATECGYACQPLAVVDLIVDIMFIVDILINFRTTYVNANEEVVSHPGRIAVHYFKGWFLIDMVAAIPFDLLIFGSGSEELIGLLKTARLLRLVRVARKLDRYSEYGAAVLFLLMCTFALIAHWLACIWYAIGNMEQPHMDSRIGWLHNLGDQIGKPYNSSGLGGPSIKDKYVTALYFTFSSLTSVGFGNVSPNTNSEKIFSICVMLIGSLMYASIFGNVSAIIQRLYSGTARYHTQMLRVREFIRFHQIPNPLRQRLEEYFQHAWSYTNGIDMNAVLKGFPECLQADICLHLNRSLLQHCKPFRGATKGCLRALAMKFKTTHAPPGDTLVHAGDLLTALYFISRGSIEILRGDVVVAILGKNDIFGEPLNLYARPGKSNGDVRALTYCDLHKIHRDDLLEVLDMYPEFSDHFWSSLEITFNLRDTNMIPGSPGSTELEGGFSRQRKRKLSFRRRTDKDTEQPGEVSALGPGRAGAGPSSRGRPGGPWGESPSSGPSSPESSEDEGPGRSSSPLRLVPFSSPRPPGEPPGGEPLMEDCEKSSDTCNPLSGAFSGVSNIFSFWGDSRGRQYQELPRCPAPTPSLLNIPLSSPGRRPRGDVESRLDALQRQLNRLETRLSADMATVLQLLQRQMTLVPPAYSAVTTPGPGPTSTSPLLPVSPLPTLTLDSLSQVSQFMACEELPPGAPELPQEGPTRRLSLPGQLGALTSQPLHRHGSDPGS
smiles,measurement,setting,value
NC(=O)/C(=C/n1cnc(-c2cc(C(F)(F)F)cc(C(F)(F)F)c2)n1)c1cncnc1 [ELTANEXOR],IC50,HCT-116,130 nM
same,microsomal CLint,[1],0.2 µL/min/mg
same,half-life,[2],> 2 h
same,Cmax,[3],141 ng/mL
same,Activity,[4],Toxic
same,Activity,[5],Toxic
same,Activity,MM1.S [6],Active
same,half-life,[7],2.7 h
same,microsomal CLint,[8],15.5 µL/min/mg
same,AUC(0-t) at 30 h,[9],963 ng·h/mL
same,IC50,AN3-CA,1170 nM
same,microsomal CLint,[10],15.6 µL/min/mg
same,half-life,[11],3 h
same,IC50,MV4-11,55.6 nM
same,Activity,[12],Non-toxic
same,AUC at 6 h,[13],83.3 ng·h/mL
same,IC50,[14],8200 nM
same,AUC(0-inf),[15],998 ng·h/mL
same,inhibition,MM1.S [16],Time-dependent-effect
same,half-life,[17],> 2 h
same,IC50,MM1.S [18],84.7 nM
same,IC50,SW872,1090 nM
same,Activity,[19],Toxic
same,IC50,RPMI-8226,217 nM
same,Tmax,[20],1 h
same,AUC at 6 h,[21],1940 ng·h/mL
same,IC50,[22],550 nM
same,IC50,[23],2700 nM
same,half-life,[24],> 2 h
same,Activity,[25],Active
same,bioavailability,[26],52%
same,half-life,[27],> 2 h
same,IC50,KMS-11,1260 nM
same,Cmax,[28],720 ng/mL
same,AUC(0-t) at 30 h,[29],2540 ng·h/mL
same,half-life,[30],> 2 h
same,IC50,ARH-77,435 nM
same,inhibition,MM1.S [31],Dose-dependent-effect
same,Activity,[32],Non-toxic
same,Activity,[33],Non-toxic
same,Activity,MM1.S [34],Active
same,AUC(0-inf),[35],2590 ng·h/mL
same,Activity,[36],Toxic
same,IC50,BXPC-3,2170 nM
same,IC50,LAMA-84,2910 nM
same,IC50,MOLM-13,435 nM
same,IC50,LoVo,304 nM
same,microsomal CLint,[37],3.2 µL/min/mg
same,microsomal CLint,[38],11.8 µL/min/mg
same,Activity,[39],Non-toxic
same,Activity,[40],Non-toxic

# Source: ChEMBL document CHEMBL6083277, “Discovery of SZJK-0421: A Novel Potent, Low Toxicity, Selective Second Generation of CRM1 Inhibitor for the Treatment of Both Hematological and Solid Tumors” (J Med Chem, 2024)
